Measured values from ChEMBL document CHEMBL3826968, “Glycine Transporter 1 Inhibitors and the Promise of a New Schizophrenia Therapy” (ACS Med Chem Lett, 2016).

Molecular target: T1, Sodium- and chloride-dependent glycine transporter 1 (Homo sapiens, UniProt P48067)
T1 sequence (P48067 whole entry): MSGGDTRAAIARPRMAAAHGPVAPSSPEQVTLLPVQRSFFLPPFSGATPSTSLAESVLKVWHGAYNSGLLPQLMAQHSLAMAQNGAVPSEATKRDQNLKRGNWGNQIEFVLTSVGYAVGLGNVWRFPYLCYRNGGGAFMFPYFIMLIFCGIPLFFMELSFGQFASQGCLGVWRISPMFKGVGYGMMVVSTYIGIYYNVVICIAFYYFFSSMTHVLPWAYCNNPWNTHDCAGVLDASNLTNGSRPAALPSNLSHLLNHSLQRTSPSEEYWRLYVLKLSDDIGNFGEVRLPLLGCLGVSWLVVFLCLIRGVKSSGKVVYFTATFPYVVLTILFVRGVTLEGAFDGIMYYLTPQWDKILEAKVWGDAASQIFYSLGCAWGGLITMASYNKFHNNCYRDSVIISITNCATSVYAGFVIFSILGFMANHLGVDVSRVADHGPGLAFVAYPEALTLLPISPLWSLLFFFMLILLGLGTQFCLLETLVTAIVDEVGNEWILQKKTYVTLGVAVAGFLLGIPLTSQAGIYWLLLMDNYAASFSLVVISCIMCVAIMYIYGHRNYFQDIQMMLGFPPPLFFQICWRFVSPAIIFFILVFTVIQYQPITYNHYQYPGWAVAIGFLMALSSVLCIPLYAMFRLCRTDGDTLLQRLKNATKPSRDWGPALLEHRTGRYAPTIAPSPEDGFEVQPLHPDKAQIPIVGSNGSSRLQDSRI
Assay: Displacement of [3H](R)-NPTS or [3H]N-methyl-SSR504734 from recombinant human glycine transporter type-1 isoform C expressed in CHO cell membrane incubated for 1 hr by liquid scintillation spectrometry
Format: cell membranes

| Ki | SMILES |
| --- | --- |
| ≤ 1 µM | Cn1cnc(S(=O)(=O)N2CC(c3ccc(Cl)cc3)C(c3ccccc3)=N2)c1 (stereo not drawn) |
| ≤ 10 µM | Cn1cc(S(=O)(=O)N2CC(c3ccc(F)cc3)C(c3cccc(C(F)(F)F)c3)=N2)nn1 (stereo not drawn) |
| ≥ 10 µM | Cn1cc(S(=O)(=O)N2CC(c3ccccc3)C(c3ccccn3)=N2)cn1 (stereo not drawn) |
